Data reported in patent US20230143545A1, “Treating Pulmonary Inflammatory Disease Associated With Covid-19 By Administering Resiniferatoxin” (Sorrento Therapeutics, Inc., priority 2020, published 2023).
“Also recorded” adds a separate entry of the source.

Legend:
Bleo-exposed rats [1] = test: Plasma cytokine ELISA in rat model of bleomycin lung injury; assay type: in vivo; conditions: epidural RTX at day 3 after Bleo; day 7
Method: Rat Model of Lung Injury.
Epidural Application of RTX.
Cytokine Assays. […] Organ weights were evaluated post-mortem.

Bleo-exposed rats [2] = test: Lung tissue cytokine ELISA in rat model of bleomycin lung injury; conditions: day 7
Method: (§1) Rat Model of Lung Injury. Rats were randomized into three groups and evaluated at 1-week post-instillation as follows: sham rats, bleomycin (Bleo)-exposed rats with saline (epidural or intra-stellate injection), and Bleo-exposed rats with RTX (epidural or intra-stellate injection). Bleo (2.5 mg/kg, —0.15 mL) was instilled intra-tracheally to the lungs under 3% isoflurane anesthesia. Sham control rats underwent intra-tracheal instillation of saline. Animals were treated with RTX or vehicle (Veh; phosphate buffered saline) by either the epidural T1-T4 DRGs route (6 μg/ml, 10 μl/per ganglia) or intra-stellate ganglia administration (50μg/ml, 5 μl/per side) 3 days following Bleo delivery (FIG. 1A-B).
Epidural Application of RTX. The upper thoracic spinal afferents were ablated by epidural application of RTX. […] Briefly, rats were anesthetized using 2%-3% isoflurane:oxygen mixture. Rats were placed in the prone position and a small midline incision was made in the region of the T13-L1 thoracic vertebrae. Following dissection of the superficial muscles, two small holes (approximately 2 mm×2 mm) were made in the left and right sides of T13 vertebrae. A polyethylene catheter (PE-10) was inserted into the subarachnoid space via one hole and gently advanced about 4 cm approximating the T1 level. The upper thoracic sympathetic afferent ganglia were ablated by injecting resiniferatoxin (RTX; Sigma Aldrich), an ultra-potent agonist of the TRPV1 receptor into the subarachnoid space via the catheter. RTX (1 mg; Sigma Aldrich) was dissolved in a 1:1:8 mixture of ethanol, Tween 80 (Sigma-Aldrich), and isotonic saline. The first injection of RTX (6 μg/ml, 10 ul) was made at a very slow speed (˜1 minute) to minimize the diffusion of the drug. The catheter was then pulled back to T2, T3 and T4, respectively to perform serial injections (10 μl/each) at each segment. The catheter was withdrawn and the same injections were repeated on the other side. Silicone gel was used to seal the hole in the T13 vertebra. The skin overlying the muscle were closed with a 3-0 polypropylene simple interrupted suture, and betadine was applied to the wound. For post-procedure pain management, buprenorphine (0.05 mg/kg) was subcutaneously injected immediately after surgery and twice daily for 2 days.
Intra-stellate Injection of RTX Rats were anesthetized using 2%-3% isoflurane:oxygen mixture. […] The skin from the rostral end of the sternum to the level of third rib was incised. Portions of the superficial and deep pectoral muscles and the first intercostal muscles were cut and dissected. To localize the left or right stellate ganglion, the left or right precava vein were separated with a hooked glass or steel rod laterally away from the brachiocephalic artery to expose the internal thoracic artery and the costocervical artery, which are descending branches of the right subclavian artery. Stellate ganglia and ansa subclavia are located medially to the origins of the internal thoracic and costocervical arteries. Then, RTX (5 μl, 50 mg/ml) was injected into the ganglia with a 5-μl Hamilton syringe (Microliter #95, Hamilton, Reno, Nev., USA.) over 30 s bilaterally. […] Betadine was applied to the wound and the rats were allowed to recover from the anesthesia. […]
Cytokine Assays. Lung and plasma cytokines were measured with R&D cytokine ELISA assays (Minneapolis, Minn., USA) according to the manufacturer's instructions.

Bleo-exposed rats [3] = test: Arterial blood gas analysis in rat model of bleomycin lung injury; conditions: intra-stellate RTX at day 3 after Bleo; day 7; vs. Bleo+Veh
Method: as §1
Intra-stellate Injection of RTX Rats were anesthetized using 2%-3% isoflurane:oxygen mixture. […] The skin from the rostral end of the sternum to the level of third rib was incised. Portions of the superficial and deep pectoral muscles and the first intercostal muscles were cut and dissected. To localize the left or right stellate ganglion, the left or right precava vein were separated with a hooked glass or steel rod laterally away from the brachiocephalic artery to expose the internal thoracic artery and the costocervical artery, which are descending branches of the right subclavian artery. Stellate ganglia and ansa subclavia are located medially to the origins of the internal thoracic and costocervical arteries. Then, RTX (5 μl, 50 mg/ml) was injected into the ganglia with a 5-μl Hamilton syringe (Microliter #95, Hamilton, Reno, Nev., USA.) over 30 s bilaterally. An image of this procedure is shown in FIG. 2A-B. Following these maneuvers, the thorax between the first and second intercostal spaces was closed with continuous 4-0 Dexon II coated braided absorbable polyglycolic acid suture and the skin was closed with 3-0 polypropylene suture and the chest evacuated. […]
(§2) Statistics. Statistical evaluation was analyzed using GraphPad Prism (GraphPad Software, San Diego, Calif. Version 8). Differences between treatments were determined using a Mixedeffects model for repeated-measures ANOVA. […]

Bleo-exposed rats [4] = test: Lung plasma extravasation (Evans Blue) in rat model of bleomycin lung injury; conditions: day 7
Method: as §1
Epidural Application of RTX. The upper thoracic spinal afferents were ablated by epidural application of RTX. […] Briefly, rats were anesthetized using 2%-3% isoflurane:oxygen mixture. Rats were placed in the prone position and a small midline incision was made in the region of the T13-L1 thoracic vertebrae. Following dissection of the superficial muscles, two small holes (approximately 2 mm×2 mm) were made in the left and right sides of T13 vertebrae. A polyethylene catheter (PE-10) was inserted into the subarachnoid space via one hole and gently advanced about 4 cm approximating the T1 level. The upper thoracic sympathetic afferent ganglia were ablated by injecting resiniferatoxin (RTX; Sigma Aldrich), an ultra-potent agonist of the TRPV1 receptor into the subarachnoid space via the catheter. RTX (1 mg; Sigma Aldrich) was dissolved in a 1:1:8 mixture of ethanol, Tween 80 (Sigma-Aldrich), and isotonic saline. The first injection of RTX (6 μg/ml, 10 ul) was made at a very slow speed (˜1 minute) to minimize the diffusion of the drug. The catheter was then pulled back to T2, T3 and T4, respectively to perform serial injections (10 μl/each) at each segment. The catheter was withdrawn and the same injections were repeated on the other side. Silicone gel was used to seal the hole in the T13 vertebra. […]
Lung Plasma Extravasation, Tissue Extraction, and Quantification of Evans Blue. […]

Bleo-exposed rats [5] = test: Body weight and organ weights post-mortem in rat model of bleomycin lung injury
Method: as §1
Intra-stellate Injection of RTX Rats were anesthetized using 2%-3% isoflurane:oxygen mixture. […] The skin from the rostral end of the sternum to the level of third rib was incised. Portions of the superficial and deep pectoral muscles and the first intercostal muscles were cut and dissected. To localize the left or right stellate ganglion, the left or right precava vein were separated with a hooked glass or steel rod laterally away from the brachiocephalic artery to expose the internal thoracic artery and the costocervical artery, which are descending branches of the right subclavian artery. Stellate ganglia and ansa subclavia are located medially to the origins of the internal thoracic and costocervical arteries. Then, RTX (5 μl, 50 mg/ml) was injected into the ganglia with a 5-μl Hamilton syringe (Microliter #95, Hamilton, Reno, Nev., USA.) over 30 s bilaterally. […]
as §2

[6] = epidural RTX at day 3 after Bleo, vs. Bleo
[7] = stellate RTX at day 3 after Bleo, vs. Bleo+Veh
[8] = intra-stellate RTX at day 3 after Bleo, day 7, vs. Bleo+Veh

For `C=C(C)[C@]12C[C@@H](C)[C@@]34O[C@](Cc5ccccc5)(O[C@@H]1[C@@H]3C=C(COC(=O)Cc1ccc(O)c(OC)c1)C[C@]1(O)C(=O)C(C)=C[C@@H]41)O2` [RTX, resiniferatoxin], the “Plasma cytokine levels in response to Bleo” value (Bleo-exposed rats [1]) was “reduced”, the “Lung tissue IFNγ level” value (Bleo-exposed rats [2]; [6]) was “reduced” and the “Lung tissue IL-1β level” value (Bleo-exposed rats [2]; [6]) was “reduced”. The “Lung tissue IL-6 level” value (Bleo-exposed rats [2]; [6]) was “reduced”, the “Lung tissue IL-1β level” value (Bleo-exposed rats [2]; [7]) was “significantly reduced” and the “Lung tissue IL-6 level” value (Bleo-exposed rats [2]; [7]) was “significantly reduced”. For the same compound, the “Arterial pCO2 (elevated by Bleo)” value (Bleo-exposed rats [3]) was “reversed these changes”, the “Arterial pO2 (reduced by Bleo)” value (Bleo-exposed rats [3]) was “reversed these changes” and the “Arterial sO2 (reduced by Bleo)” value (Bleo-exposed rats [3]) was “reversed these changes”. The “Plasma extravasation (Evans Blue areas / concentration in lung)” value (Bleo-exposed rats [4]; epidural RTX T1-T4 (6 μg/ml, 10 μl/per ganglia) at day 3 after Bleo 2.5 mg/kg intra-tracheal, vs. Bleo) was “reduced”, the “Plasma extravasation (Evans Blue dye in the lung)” value (Bleo-exposed rats [4]; intra-stellate RTX (50μg/ml, 5 μl/per side) at day 3 after Bleo, vs. Bleo+Veh) was “marked reduction; also recorded: reduced” and the “Ratio of WLW to BW” value (Bleo-exposed rats [5]; [8]) was “significantly reduced”. For the same compound, the “Wet lung weight (WLW)” value (Bleo-exposed rats [5]; [8]) was “significantly reduced” and the Body weight (Bleo-exposed rats [5]; stellate ganglia administration of RTX in rats with lung injury) was “improved”.
